For one molecule, EC50 results are on record in patent publication US7241785B2, “Five-membered heterocyclic alkanoic acid derivative” (Takeda Pharmaceutical Company Limited, priority 2001, dated 2007).

This assay addresses T1, PPARδ-RXRα heterodimer (Homo sapiens, UniProt Q03181).
T1 sequence (Q03181 1-441): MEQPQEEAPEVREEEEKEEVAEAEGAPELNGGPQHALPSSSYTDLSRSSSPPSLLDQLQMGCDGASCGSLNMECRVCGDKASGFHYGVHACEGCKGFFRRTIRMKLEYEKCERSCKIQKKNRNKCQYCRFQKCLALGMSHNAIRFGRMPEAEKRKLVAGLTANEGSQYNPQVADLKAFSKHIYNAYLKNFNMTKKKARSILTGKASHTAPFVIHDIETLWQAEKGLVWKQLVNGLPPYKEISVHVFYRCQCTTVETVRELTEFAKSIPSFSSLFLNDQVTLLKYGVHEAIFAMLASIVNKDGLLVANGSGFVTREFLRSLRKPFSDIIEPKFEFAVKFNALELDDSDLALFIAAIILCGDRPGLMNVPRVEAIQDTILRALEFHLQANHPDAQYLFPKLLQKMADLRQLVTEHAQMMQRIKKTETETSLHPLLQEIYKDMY
T1 sequence (P19793 1-462 partner): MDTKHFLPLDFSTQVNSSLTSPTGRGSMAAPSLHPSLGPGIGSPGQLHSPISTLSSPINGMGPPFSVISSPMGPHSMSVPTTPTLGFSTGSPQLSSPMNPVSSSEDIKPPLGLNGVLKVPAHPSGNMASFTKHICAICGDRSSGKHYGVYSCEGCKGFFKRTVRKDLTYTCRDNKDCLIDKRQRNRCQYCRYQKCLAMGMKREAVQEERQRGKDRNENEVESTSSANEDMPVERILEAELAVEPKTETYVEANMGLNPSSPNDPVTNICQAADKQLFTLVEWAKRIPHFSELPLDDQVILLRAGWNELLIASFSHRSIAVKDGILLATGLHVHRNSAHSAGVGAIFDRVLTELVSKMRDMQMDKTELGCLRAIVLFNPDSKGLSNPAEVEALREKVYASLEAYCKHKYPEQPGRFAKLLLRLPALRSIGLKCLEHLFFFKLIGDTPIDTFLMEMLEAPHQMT
The assay is described as follows: PPARδ-RXRα heterodimer ligand activity (luciferase reporter, PPARδ:RXRα:4ERPP/CHO-K1 cells). As to conditions: concentration for 50% of maximum fold induction of luciferase, 48 hrs. On the set-up: expressed in transfected cells. Format: cell-based. As for the experimental part:
PPARδ-RXRα Heterodimer Ligand Activity
PPARδ:RXRα:4ERPP/CHO-K1 cells obtained in Reference Example 5a were cultured in HAM F12 medium (produced by NISSUI SEIYAKU) containing 10% fetal bovine serum (produced by Life Technologies, Inc., USA) and then seeded in a 96-well white plate (produced by Corning Costar Corporation, USA) at the density of 2×10^4 cells/well, and cultured in a CO2 gas incubator at 37° C. overnight.
After washing the 96 well white plate with PBS (Phosphate-buffered saline), 90 μl of HAM F12 medium containing 0.1% fatty acid-free bovine serum albumin (BSA) and 10 μl of test compound were added, and the cells were cultured in a CO2 gas incubator at 37° C. for 48 hrs. After removing the medium, 40 μl of PicaGene 7.5 (produced by Wako Pure Chemical Industries, Ltd.) was added. After stirring, the luciferase activity was determined using Lumistar (produced by BMG Labtechnologies GmbH, Germany).
The fold induction was calculated from the luciferase activity of each test compound when the luciferase activity in the non-treatment group is taken as 1. The values of the test compound concentration and the fold induction were analyzed using PRISM 2.01 (produced by GraphPad Software Inc. USA) to calculate the EC50 values, the effective concentration of a test compound for 50% of the maximum fold induction. […]

`Cc1oc(-c2ccccc2)nc1COc1ccc(Sc2nc(-c3ccccc3)c(CCC(=O)O)o2)cc1` [Example 10, 3-[2-[4-(5-methyl-2-phenyl-4-oxazolylmethoxy)phenylthio]-4-phenyl-5-oxazolyl]propionic acid] registered an EC50 of 2.1 µM.
